Assay results taken from patent US20060276416A1, “Methods and compositions for treating flushing and drug induced weight gain” (Sirtris Pharmaceuticals, Inc., priority 2005, published 2006).

How the values were obtained:
[1] = test system: ribosomal DNA recombination; assay: Ribosomal DNA recombination assay (loss of ADE2 marker); type: cell-based, S. cerevisiae
[2] = molecular target: recombinant GST-Sir2 (Saccharomyces cerevisiae, UniProt P06700); assay: Sir2 deacetylation assay; type: biochemical, S. cerevisiae
Method: (§1) Average lifespan for wild type, 22.9 generations, quercetin, 23.4; piceatannol.
His6-tagged recombinant SIRT1 and GST-tagged recombinant Sir2 were prepared as previously described^26. From 0.1 to 1 μg of SIRT1 and 1.5 μg of Sir2 were used per deacetylation assay (in 50 μl total reaction) as previously described^26. SIRT1 assays and certain of those for Sir2 employed the p53-382 acetylated substrate (‘Fluor de Lys-SIRT1’, BIOMOL) rather than FdL.
Themed compound libraries (BIOMOL) were used for primary and secondary screening. Most polyphenol compounds were dissolved at 10 mM in dimethylsulfoxide (DMSO) on the day of the assay. For water soluble compounds and negative controls, 1% v/v DMSO was added to the assay. In vitro fluorescence assay results were read in white ½-volume 96-well microplates (Corning Costar 3693) with a CytoFluor™ II fluorescence plate reader (PerSeptive Biosystems, Ex. 360 nm, Em. 460 nm, gain=85). HeLa cells were grown and the cellular deacetylation assays were performed and read, as above, but in full-volume 96-well microplates (Corning Costar 3595). […] Calculation of net fluorescence increases included subtraction of a blank value, which in the case of Sir2 was obtained by omitting the enzyme from the reaction and in the case of SIRT1 by adding an inhibitor (200 μM suramin or 1 mM nicotinamide) to the reaction prior to the acetylated substrate. […]

[3] = test system: C. elegans; assay: C. elegans lifespan assay; type: in vivo
Method: Thus, the presence of resveratrol in the growth media of C. elegans extends their lifespan.
Bristol N2 (Caenorhabditis Genetics Center) was used as the wild-type strain. The sir-2.1 mutant strain was generated by backcrossing VC 199 (sir-2.1 (ok434)) to N2 four times. Cultures were grown on standard NGM media and maintained on E. coli strain OP50. For the lifespan assays, synchronized animals were transferred to treatment plates as young adults (2 d after hatching, day 0 of assay), and were transferred to fresh treatment plates every 2 days for the first 6 to 8 days of the assay. […] For some lifespan trials, heat-killed OP50 were used as a food source. OP50 cultures were heated to 65° C. for 30 minutes, then pelleted and resuspended in 1/10 volume in S Basal supplemented with 10 mM MgSO4. In all assays, worms were monitored daily for mortality by gently probing with a platinum pick. Assays were performed at 24° C. To assay worm feeding rates, worms at the indicated stages were placed on treatment plates (no FUdR) for 4-5 hours, then videoed for 1 minute using a Pixelink PL-662 camera. The frame rate was slowed and the pumping rate of the pharynx was counted. To assay fecundity, gravid hermaphrodites (5 per plate, raised from synchronized L1s on normal or treatment plates) were allowed to lay eggs on their respective media for 5 hours, and the total number of eggs was counted.

[4] = molecular target: recombinant dSir2 (Drosophila melanogaster, UniProt Q9VK34); assay: dSir2 deacetylation assay (Fluor de Lys); type: biochemical, D. melanogaster; conditions: dose-dependent; maximum
Method: (§2) From 0.1 to 1 μg of SIR-2.1 and 1 μg of dSir2 were used per deacetylation assay as previously described with modifications (SIR-2.1: 200 μM NAD^+, 10 μM Fluor de Lys, FdL; dSir2: 25 μM NAD^+, 10 μM FdL)^26. STACs were dissolved at 10 mM in dimethylsulfoxide (DMSO) the day of the assay. In vitro fluorescence assay results were read in 96-well microplates (Corning Costar 3693) with a Wallac Victor Multilabel counter (Perkin Elmer, excitation at 360 nm, emission at 450 nm). Drosophila S2 cells were grown in Schneider media with fetal calf serum at 23-28° C., seeded at 9×10^4 cells/well, grown overnight and then exposed to 1 μM TSA, 500 μM polyphenols, and 200 μM FdL for 2 hr. Deacetylation of FdL with lysate from whole cells was determined as described^4. Unless otherwise indicated all initial rate measurements were means of three or more replicates obtained with single incubation times, at which point 5% or less of the substrate initially present was deacetylated.

[5] = test system: lysine 382 of p53; assay: p53 K382 acetylation Western blot in UV-irradiated U2OS cells; type: cell-based, human
Method: FdL (200 μM) is added to growth media and cells incubated for 1-3 hours to allow FdL to enter the cells and the lysine-deacetylated product (deAc-FdL) to accumulate intracellularly. Cells are lysed with detergent in the presence of 1 μM TSA, 1 mM nicotinamide. […] Cells were grown adherently in DMEM/10% FCS and treated for 1 hour with 200 μM FdL, 1 μM TSA and either vehicle (0.5% final DMSO, Control) or 500 μM of the indicated compound. Intracellular accumulation of deAc-FdL was then determined as described briefly in a. […] Lysates were prepared and analyzed as above.
Whole cell extracts were prepared by lysing cells in buffer containing 150 mM NaCl, 1 mM MgCl2, 10% glycerol, 1% NP40, 1 mM DTT and anti-protease cocktail (Roche).

[6] = molecular target: recombinant SIR-2.1 (Caenorhabditis elegans, UniProt Q21921); assay: SIR-2.1 deacetylation assay (Fluor de Lys); type: biochemical, C. elegans
Method: as §2

[7] = test system: TNF-alpha treated adipocytes; assay: Radioactive glucose uptake in TNF-alpha treated insulin resistant adipocytes; type: cell-based; conditions: resveratrol 5 μM or 15 μM; roziglitazone 4 μM
[8] = test system: S. cerevisiae; assay: Yeast replicative lifespan by micro-manipulation; type: cell-based
Method: as §1
Lifespan measurements were performed using PSY316AT MATα as previously described^35. All compounds for lifespan analyses were dissolved in 95% ethanol and plates were dried and used within 24 hours. Prior to lifespan analysis, cells were pre-incubated on their respective media for at least 15 hours. Following transfer to a new plate, cells were equilibrated on the medium for a minimum of 4 hours prior to micro-manipulating them. At least 30 cells were examined per experiment and each experiment was performed at least twice. Statistical significance of lifespan differences was determined using the Wilcoxon rank sum test. Differences are stated to be significant when the confidence is higher than 95%.

Chain of recombinant GST-Sir2 (P06700 whole entry): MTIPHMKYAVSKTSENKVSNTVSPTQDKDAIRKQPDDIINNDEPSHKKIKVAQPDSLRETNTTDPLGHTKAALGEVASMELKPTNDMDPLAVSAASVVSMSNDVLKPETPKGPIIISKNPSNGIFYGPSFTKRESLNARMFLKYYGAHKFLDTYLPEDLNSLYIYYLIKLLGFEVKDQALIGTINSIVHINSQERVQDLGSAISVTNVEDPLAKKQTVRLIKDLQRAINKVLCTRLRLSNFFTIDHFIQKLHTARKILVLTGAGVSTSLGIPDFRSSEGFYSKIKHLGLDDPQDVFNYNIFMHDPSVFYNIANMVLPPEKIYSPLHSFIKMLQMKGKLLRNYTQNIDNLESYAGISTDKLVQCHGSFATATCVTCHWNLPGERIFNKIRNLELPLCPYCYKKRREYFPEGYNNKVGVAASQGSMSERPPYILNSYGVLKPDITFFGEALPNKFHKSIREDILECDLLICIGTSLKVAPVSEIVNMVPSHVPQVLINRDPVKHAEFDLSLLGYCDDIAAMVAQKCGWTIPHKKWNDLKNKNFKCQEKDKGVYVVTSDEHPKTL
Chain of recombinant SIR-2.1 (Q21921 whole entry): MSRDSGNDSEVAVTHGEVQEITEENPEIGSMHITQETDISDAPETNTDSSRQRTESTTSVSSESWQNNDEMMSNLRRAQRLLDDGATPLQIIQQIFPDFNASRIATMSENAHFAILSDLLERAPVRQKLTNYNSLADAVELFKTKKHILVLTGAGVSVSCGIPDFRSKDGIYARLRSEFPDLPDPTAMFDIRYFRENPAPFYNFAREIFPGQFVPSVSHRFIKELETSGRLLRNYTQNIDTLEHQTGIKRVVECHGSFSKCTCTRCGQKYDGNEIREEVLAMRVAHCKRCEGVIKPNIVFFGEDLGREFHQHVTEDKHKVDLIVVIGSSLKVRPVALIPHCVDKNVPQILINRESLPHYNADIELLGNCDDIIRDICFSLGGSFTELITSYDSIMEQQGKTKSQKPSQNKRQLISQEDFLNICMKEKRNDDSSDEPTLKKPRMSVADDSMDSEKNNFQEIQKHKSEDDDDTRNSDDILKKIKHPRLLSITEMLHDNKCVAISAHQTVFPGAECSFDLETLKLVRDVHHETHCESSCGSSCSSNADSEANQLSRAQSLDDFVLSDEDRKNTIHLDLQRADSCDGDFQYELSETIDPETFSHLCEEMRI
Chain of recombinant dSir2 (Q9VK34 whole entry): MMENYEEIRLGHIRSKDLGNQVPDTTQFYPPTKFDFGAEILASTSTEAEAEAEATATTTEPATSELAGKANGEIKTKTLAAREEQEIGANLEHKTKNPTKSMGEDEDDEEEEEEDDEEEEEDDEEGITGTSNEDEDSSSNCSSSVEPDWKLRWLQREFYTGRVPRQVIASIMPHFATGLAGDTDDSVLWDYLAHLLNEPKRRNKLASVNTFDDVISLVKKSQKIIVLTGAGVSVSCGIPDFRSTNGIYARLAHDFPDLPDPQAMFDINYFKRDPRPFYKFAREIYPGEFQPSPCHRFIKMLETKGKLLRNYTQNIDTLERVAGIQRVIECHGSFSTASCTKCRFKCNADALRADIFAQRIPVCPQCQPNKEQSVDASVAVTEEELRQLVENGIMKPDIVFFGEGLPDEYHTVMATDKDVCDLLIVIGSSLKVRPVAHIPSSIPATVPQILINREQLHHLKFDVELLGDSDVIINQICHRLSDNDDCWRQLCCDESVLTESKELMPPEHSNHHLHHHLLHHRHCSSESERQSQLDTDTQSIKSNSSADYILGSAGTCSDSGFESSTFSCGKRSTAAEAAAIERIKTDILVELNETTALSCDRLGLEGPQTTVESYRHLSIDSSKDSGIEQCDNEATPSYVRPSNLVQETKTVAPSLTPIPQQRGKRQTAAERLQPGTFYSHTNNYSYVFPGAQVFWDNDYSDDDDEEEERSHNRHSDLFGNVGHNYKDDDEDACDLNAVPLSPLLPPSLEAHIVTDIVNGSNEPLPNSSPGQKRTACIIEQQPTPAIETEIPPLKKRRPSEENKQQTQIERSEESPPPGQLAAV

## Oc1ccc(/C=C/c2cc(O)cc(O)c2)cc1 [Resveratrol, 3,5,4′-Trihydroxy-trans-stilbene]
[1]; in the presence of the Sir2 inhibitor nicotinamide
  Effect on rDNA recombination: decreased
[1]; sir2 strain
  Effect on rDNA recombination: does not suppress
[2]
  Concentrations at which inhibition was seen: > 100 µM
  Optimum concentration of activator: 2 to 5 µM
[3]; sir-2.1 null mutant
  Lifespan extension (in words): did not exhibit a significant lifespan extension
[3]; wild-type worms, 100 μM, heat-killed or live E. coli, maximum
  Lifespan extension: up to 15%
[4]
  Stimulation of deacetylation: ≤ 2.4 fold
[5]; 0.5 μM resveratrol, 4 hours pre-treatment, UV radiation
  Level of Ac-K382: marked decrease
[5]; higher concentrations of resveratrol (>50 μM)
  Level of Ac-K382: reversed
[6]; 100 μM resveratrol, 10 μM Fluor de Lys
  Km of SIR-2.1 for the co-substrate NAD+: lowered
[6]; dose-dependent, maximum
  Stimulation of deacetylation: up to 2.5 fold
[7]
  Insulin sensitivity (radioactive glucose uptake): partially rescued
[8]; glucose-restricted+resveratrol (CR+R)
  Average lifespan: 39.9 generations
[8]; growth on resveratrol 10 μM, wild type untreated 21.0
  Average lifespan: 35.7 generations
[8]; growth on resveratrol 100 μM, wild type untreated 21.0
  Average lifespan: 29.4 generations
[8]; growth on resveratrol 500 μM, wild type untreated 21.0
  Average lifespan: 29.3 generations
[8]; pnc1Δ+resveratrol, pnc1Δ 19.2
  Average lifespan: 33.1 generations
[8]; sir2Δ+resveratrol, sir2Δ 9.9
  Average lifespan: 10.0 generations
[8]; wild type+resveratrol, wild type untreated 19.0
  Average lifespan: 37.8 generations
